Paper PMC11358092, “Caspofungin enhances the potency of rifampin against Gram-negative bacteria” (Frontiers in Microbiology, 2024)
Structures can show the parent of a compound that is named as a salt.

Test system: E. coli MG1655
Assay: High-throughput screening of FDA-approved drug library for antibiotic adjuvants (growth inhibition, OD600)
Assay type: cell-based, Escherichia coli
Details: library drug alone, LB medium, 96-well, 8 h static culture at 37°C, relative to PMBN (positive) and DMSO (negative) controls, %, table head prints no unit
Procedure: To screen for antibiotic adjuvants against GNB, […] library drugs or polymyxin B nonapeptide (PMBN, positive control) or dimethyl sulfoxide (DMSO, negative control). After 8 h of static culture at 37°C, the optical density at 600 nm (OD600) was measured using a microplate reader. Percentage inhibition was calculated as (ODN – ODX)/(ODN – ODP) × 100%, where ODX is the OD600 value for a test treated with drug X, and ODP and ODN are the OD600 values for the positive and negative control, respectively.

Row | SMILES | Growth inhibition, Compound [%]
1 | OB1OCc2cc(F)ccc21 [Tavaborole] | 91
2 | Nc1nc(/C(=N/O)C(=O)N[C@@H]2C(=O)N3C(C(=O)O)=C(/C=C4\CCN([C@@H]5CCNC5)C4=O)CS[C@H]23)ns1 [Ceftobiprole] | 107
3 | CCn1cc(C(=O)O)c(=O)c2cc(F)c(N3CCNCC3)nc21 [Enoxacin] | 109
4 | [H]/N=C(\N/C(=N/[H])NCCCCCCNC(=N)NC(=N)Nc1ccc(Cl)cc1)Nc1ccc(Cl)cc1 [Chlorhexidine hydrochloride] | 107
5 | N[C@@H](C(=O)N[C@@H]1C(=O)N2C(C(=O)O)=C(Cl)CS[C@H]12)c1ccccc1 [Cefaclor monohydrate] | 80
6 | CN[C@@H]1[C@@H](O)[C@@H](O[C@@H]2[C@@H](O)[C@H](O[C@H]3O[C@H]([C@@H](C)NC)CC[C@H]3N)[C@@H](N)C[C@H]2N)OC[C@]1(C)O.O=S(=O)(O)O [Gentamycin sulfate] | 110
7 | CC1(C)S[C@@H]2[C@H](NC(=O)[C@H](NC(=O)N3CCNC3=O)c3ccccc3)C(=O)N2[C@H]1C(=O)O [Azlocillin sodium] | 94
8 | Oc1c(I)cc(I)c2cccnc12 [Iodoquinol] | 70
9 | CCn1cc(C(=O)[O-])c(=O)c2ccc(C)nc21.[Na+] [Nalidixic acid sodium salt] | 63
10 | CC[C@H]1OC(=O)[C@H](C)[C@@H](O[C@H]2C[C@@](C)(OC)[C@@H](O)[C@H](C)O2)[C@H](C)[C@@H](O[C@@H]2O[C@H](C)C[C@H](N(C)C)[C@H]2O)[C@](C)(O)C[C@@H](C)C(=O)[C@H](C)[C@H]2OC(=O)O[C@@]21C [Davercin] | 114
11 | CC(=O)OCC1=C(C(=O)O)N2C(=O)[C@@H](NC(=O)Cc3cccs3)[C@H]2SC1 [Cephalothin sodium] | 79
12 | Cc1cc(CC(C)CC(C)(C)C)n(O)c(=O)c1.NCCO (stereo not shown) [Piroctone olamine] | 54
13 | CN[C@@H]1[C@H](O)[C@H](NC)[C@H]2O[C@@]3(O)C(=O)C[C@@H](C)O[C@H]3O[C@@H]2[C@H]1O.Cl.Cl.O.O.O.O.O [Spectinomycin dihydrochloride pentahydrate] | 96
14 | O=C(Nc1ccc(Cl)cc1)c1cc(Br)ccc1O [Salifungin] | 67
15 | CCCCCCCCc1ccc(CCC(N)(CO)CO)cc1 [Fingolimod] | 90
16 | NC[C@H]1O[C@H](O[C@H]2[C@H](O)[C@@H](O[C@H]3O[C@H](CO)[C@@H](O)[C@H](N)[C@H]3O)[C@H](N)C[C@@H]2N)[C@H](O)[C@@H](O)[C@@H]1O [Kanamycin sulfate] | 109
17 | Oc1c(Cl)cc(Cl)cc1Sc1cc(Cl)cc(Cl)c1O [Bithionol] | 86
18 | C[C@@H](O)[C@H]1C(=O)N2C(C(=O)O)=C(S[C@@H]3CN[C@H](C(=O)N(C)C)C3)[C@H](C)[C@H]12 [Meropenem trihydrate] | 86
19 | CCN(CC)C(=S)SSC(=S)N(CC)CC [Disulfiram] | 78
20 | CCN1CCN(C(=O)N[C@@H](C(=O)N[C@@H]2C(=O)N3C(C(=O)O)=C(CSc4nnnn4C)CS[C@H]23)c2ccc(O)cc2)C(=O)C1=O [Cefoperazone] | 100

Row | SMILES | Growth inhibition, Compound [%]
21 | O=C(N/N=C/c1ccc([N+](=O)[O-])o1)c1ccc(O)cc1 [Nifuroxazide] | 102
22 | CC1(C)S[C@@H]2[C@H](NC(=O)[C@H](N)c3ccc(O)cc3)C(=O)N2[C@H]1C(=O)[O-].[Na+] [Amoxicillin Sodium] | 98
23 | Cn1nnc(-c2ccc(-c3ccc(N4C[C@H](CO)OC4=O)cc3F)cn2)n1 [Torezolid] | 61
24 | Cc1cc(O)c(C(=O)N[C@@H](C(=O)N[C@@H]2C(=O)N3C(C(=O)O)=C(CSc4nnnn4C)CS[C@H]23)c2ccc(O)cc2)cn1 [Cefpiramide acid] | 97
25 | CS(=O)(=O)c1ccc([C@@H](O)[C@@H](CF)NC(=O)C(Cl)Cl)cc1 [Florfenicol] | 116
26 | CC(OC(=O)OC1CCCCC1)OC(=O)C1=C(CSc2nnnn2CCN(C)C)CS[C@@H]2[C@H](NC(=O)Cc3csc(N)n3)C(=O)N12.Cl.Cl (stereo partly shown) [Cefotiam Hexetil Hydrochloride] | 87
27 | C[C@H]1c2cccc(O)c2C(=O)C2=C(O)[C@]3(O)C(=O)C(C(N)=O)=C(O)[C@@H](N(C)C)[C@@H]3[C@@H](O)[C@@H]21 [Doxycycline] | 118
28 | COCC1=C(C(=O)O)N2C(=O)[C@@H](NC(=O)/C(=N\OC)c3csc(N)n3)[C@H]2SC1 [Cefpodoxime (free acid)] | 108
29 | N[C@@H]1[C@H]2CN(c3nc4c(cc3F)c(=O)c(C(=O)O)cn4-c3ccc(F)cc3F)C[C@@H]12 [Trovafloxacin mesylate] | 116
30 | CN(C)[C@@H]1C(O)=C(C(N)=O)C(=O)[C@@]2(O)C(O)=C3C(=O)c4c(O)cccc4[C@@](C)(O)C3[C@H](O)C12.Cl (stereo partly shown) [Aquacycline] | 110
31 | COc1c(N2CCNC(C)C2)c(F)cc2c(=O)c(C(=O)O)cn(C3CC3)c12.Cl (stereo not shown) [Gatifloxacin hydrochloride] | 104
32 | CC1(C)S[C@@H]2[C@H](NC(=O)[C@H](N)c3ccccc3)C(=O)N2[C@H]1C(=O)O [Ampicillin sodium] | 91
33 | CN[C@@H]1[C@@H](O)[C@@H](O[C@@H]2[C@@H](O)[C@H](O[C@H]3O[C@H](CN)[C@@H](O)[C@H](O)[C@H]3O)[C@@H](N)C[C@H]2NC(=O)[C@@H](O)CN)OC[C@]1(C)O [Isepamicin sulfate] | 108
34 | CO[C@H]1/C=C/O[C@@]2(C)Oc3c(C)c(O)c4c([O-])c(cc(O)c4c3C2=O)NC(=O)/C(C)=C\C=C\[C@H](C)[C@H](O)[C@@H](C)[C@@H](O)[C@@H](C)[C@H](OC(C)=O)[C@@H]1C.[Na+] [Rifamycin sodium salt] | 25
35 | O=C(Nc1cc(Cl)cc(Cl)c1O)c1c(O)c(Cl)cc(Cl)c1Cl [Oxyclozanide] | 52
36 | O=c1[nH]cnc2c1ncn2[C@H]1CC[C@@H](CO)O1 [Didanosine] | 41
37 | O=c1[nH]c(=O)n([C@H]2C[C@H](O)[C@@H](CO)O2)cc1C(F)(F)F [Trifluridine] | 27
38 | CO/N=C(\C(=O)N[C@@H]1C(=O)N2C(C(=O)O)=C(COC(C)=O)CS[C@H]12)c1csc(N)n1 [Cefotaxime] | 113
39 | O=[N+]([O-])c1ccc(O)c2ncccc12 [Nitroxoline] | 105
40 | CC[C@H]1OC(=O)[C@H](C)[C@@H](O[C@H]2C[C@@](C)(OC)[C@@H](O)[C@H](C)O2)[C@H](C)[C@@H](O[C@@H]2O[C@H](C)C[C@H](N(C)C)[C@H]2O)[C@](C)(O)C[C@@H](C)CN(C)[C@H](C)[C@@H](O)[C@]1(C)O [Azithromycin] | 109

Row | SMILES | Growth inhibition, Compound [%]
41 | NCC[C@H](O)C(=O)N[C@@H]1C[C@H](N)[C@@H](O[C@H]2O[C@H](CN)[C@@H](O)[C@H](O)[C@H]2O)[C@H](O)[C@H]1O[C@H]1O[C@H](CO)[C@@H](O)[C@H](N)[C@H]1O.O=S(=O)(O)O.O=S(=O)(O)O [Amikacin disulfate] | 108
42 | Nc1ncn([C@@H]2O[C@H](CO)[C@@H](O)[C@H]2O)c(=O)n1 [5-Azacytidine] | 43
43 | NC1CCN(c2nc3c(cc2F)c(=O)c(C(=O)O)cn3-c2ccc(F)cc2F)C1 (stereo not shown) [Tosufloxacin] | 106
44 | CO[C@@]1(NC(=O)Cc2cccs2)C(=O)N2C(C(=O)O)=C(COC(N)=O)CS[C@@H]21 [Cefoxitin sodium] | 78
45 | CO/N=C(\C(=O)N[C@@H]1C(=O)N2C(C(=O)OCOC(=O)C(C)(C)C)=C(Cn3nnc(C)n3)CS[C@H]12)c1csc(N)n1 [Cefteram pivoxil] | 110
46 | CC1(C)S[C@@H]2[C@H](NC(=O)[C@H](C(=O)O)c3ccsc3)C(=O)N2[C@H]1C(=O)O [Ticarcillin sodium] | 86
47 | Cc1cc(C2CCCCC2)n(O)c(=O)c1.NCCO [Ciclopirox ethanolamine] | 114
48 | Nc1n[n+]([O-])c2ccccc2[n+]1[O-] [Tirapazamine] | 114
49 | CCn1cc(C(=O)O)c(=O)c2cnc(N3CCNCC3)nc21 [Pipemidic acid] | 105
50 | NCC[C@H](O)C(=O)N[C@@H]1C[C@H](N)[C@@H](O[C@H]2O[C@H](CN)[C@@H](O)[C@H](O)[C@H]2O)[C@H](O)[C@H]1O[C@H]1O[C@H](CO)[C@@H](O)[C@H](N)[C@H]1O.O=S(=O)(O)O.O=S(=O)(O)O [Amikacin Sulfate Salt] | 107
51 | Nc1ccc2cc3ccc(N)cc3nc2c1 [Proflavine Hemisulfate] | 54
52 | Cl.N[C@@H]1CCCCN(c2c(F)cc3c(=O)c(C(=O)O)cn(C4CC4)c3c2Cl)C1 [Besifloxacin HCl] | 107
53 | CC1(C)S[C@@H]2[C@H](NC(=O)[C@H](C(=O)O)c3ccsc3)C(=O)N2[C@H]1C(=O)O [Ticarcillin disodium] | 86
54 | CCCCCCCCc1ccc(CCC(N)(CO)CO)cc1 [Fingolimod hydrochloride] | 87
55 | Oc1c(I)cc(Cl)c2cccnc12 [Clioquinol] | 94
56 | CN(C)[C@@H]1C(O)=C(C(N)=O)C(=O)[C@@]2(O)C(O)=C3C(=O)c4c(O)cccc4[C@@](C)(O)[C@H]3[C@H](O)[C@@H]12 [Oxytetracycline Dihydrate] | 101
57 | CCn1cc(C(=O)O)c(=O)c2cc(F)c(N3CCNC(C)C3)c(F)c21 (stereo not shown) [Lomefloxacin] | 99
58 | O.c1cnc2c(c1)ccc1cccnc12 [1, 10-Phenanthroline monohydrate] | 62
